For data set [1] the following is noted: for Compatibility with Minocycline HCl: tested after the storage for up to 3 weeks; for Compatibility with Minocycline HCl (observations): on dissolution / storage. As for the experimental part:
The ratio between MCH and the tested excipient is detailed below. Visual inspection was the major criterion for indication of compatibility. The color of intact MCH suspension is pale yellow; and any change of color (e.g., to dark orange, red, green, brown and black) indicates oxidation or degradation.
Other than hydrogenated castor oil, beeswax, paraffin and hard fat, the aforesaid items listed are oily emollients.
Additives were tested for compatibility with MCH. […] In parallel, antioxidants were added to the MCH suspensions comprising water.

Data set [2] is described as follows: Doxycycline Hyclate Compatibility Test. In kind it is physicochemical. As for the experimental part:
(§1) A similar compatibility study was conducted for Doxycycline Hyclate and Doxycycline Monohydrate.
(§2) Different compositions of hydrophilic and hydrophobic solvents containing Doxycycline Hyclate (Set I and Set II) and Doxycycline Monohydrate (Set III) were prepared by weighing the antibiotic in a glass vial and shaking overnight with each solvent investigated.
Group II included Doxycycline Hyclate mixed with various vehicles with addition of antioxidants like alpha tocopherol, butylated hydroxytoluene (BHT), and ascorbic acid.

Data set [3] in a line: Doxycycline Monohydrate Compatibility Test. In kind it is physicochemical. As for the experimental part: as §1, §2
A similar compatibility test was performed on another form of Doxycycline—Doxycycline Monohydrate.

Data set [4] can be described thus: Phase I PK study in adults with acne: topical minocycline foam 4% for 21 days vs single oral dose of minocycline (FX2014-03). The format is in vivo, human. The settings on record: Period 1, single oral dose ~1 mg/kg minocycline, Day 1-5; for AUC(0-inf) / AUC / Cmax / half-life / Tmax: both sexes, human, plasma, po, 1 mg/kg. As for the experimental part:
Each application was approximately 4 g (a maximal-use dose). […] On the day of initial dosing (Day 1), subjects checked into the clinic where they were confined until 1 hour after study drug was administered. Predose clinical assessments were performed and a 1 mL blood sample for PK analysis was obtained before study drug was administered.
SUBJECTS: Adults were eligible for this study if they were 18 to 35 years of age; children were eligible for the pediatric study if they were 9 to 16 years and 11 months of age and in good health, as judged on the basis of their medical history and the screening procedures. They were required to have moderate-to-severe facial acne vulgaris as well as acne affecting at least two additional regions of the body (neck, upper chest, upper back, or arms).
On days 6, 9, 10, 11, and 16, blood samples were obtained at approximately 30 minutes before the scheduled application. […] After the final application, subjects were asked to return for additional blood sampling on days 23, 24, and 25.
BIOANALYTICAL METHODS: Blood samples were collected and centrifuged, and the separated plasma was stored at approximately −70° C.
Actual sample collection times were used for the purpose of calculating pharmacokinetic parameters. […] Geometric mean was calculated for Cmax, AUC0-tldc, AUC0-inf, and AUC0-tau, and the harmonic mean was calculated for t1/2. Analysis of multiple-dose accumulation, determination of steady state, and other pertinent comparisons of pharmacokinetic parameters across or between doses were performed using the appropriate statistical methods. […] The CIs were expressed as a percentage relative to the LSM of the reference treatment.

The mark [5] stands for this setting: foam adjuvants, MCH:excipient 1:50.
Setting [6] is: hydrophilic solvents, MCH:excipient 1:250, 25° C. and 40° C., maximum sixty days.
[7] abbreviates: tested after the storage for up to 3 weeks.
Where [8] appears, read: surfactants solubilized in mineral oil, MCH:excipient 1:50.
[9] abbreviates: mixtures stored at 25° C., 40° C. and 50° C. for two weeks.
The mark [10] stands for this setting: oily emollients, MCH:excipient 1:250, 25° C. and 40° C., maximum sixty days.

Like-named read-outs stand apart in the source and are kept apart here.

The term Cmax denotes the peak of the concentration-time curve. The term Tmax denotes the time at which the peak concentration occurs.

In the case of `CCCCCCCCCCCCCCCCCCCCCCO` [Behenyl alcohol], the “Compatibility with MCH” value in data set [1] (setting [5]) is given as “compatible”.

For `OCCCCO` [Butylene Glycol], the “Compatibility with MCH” value in data set [1] (setting [6]) is “incompatible”. Besides, the “Compatibility with Minocycline HCl” value in data set [1] is given as “No”. The “Compatibility with Doxycycline Hyclate” value in data set [2] (setting [7]) was “No”. In data set [3] (setting [7]), the “Compatibility with Doxycycline Monohydrate” value is listed as “No”.

Take `CCCCCCCCCCCCCCCCO` [Cetyl alcohol]: the “Compatibility with MCH” value in data set [1] (setting [5]) was “compatible”.

Regarding `C[Si]1(C)O[Si](C)(C)O[Si](C)(C)O[Si](C)(C)O[Si](C)(C)O1` [Cyclomethicone 5 NF], in data set [1], the “Compatibility with Minocycline HCl” value is “Yes”. The “Compatibility with Doxycycline Hyclate” value in data set [2] (setting [7]) was “Yes”. Further, the “Compatibility with Doxycycline Monohydrate” value in data set [3] (setting [7]) is “Yes”.

Take `CCOCCOCCO` [Diethylene glycol monoethyl ether]: in data set [1] (setting [6]), the “Compatibility with MCH” value is “incompatible”.

For `CO[C@H]1CO[C@H]2[C@@H]1OC[C@H]2OC` [Dimethyl Isosorbide], in data set [1] (setting [6]), the “Compatibility with MCH” value is reported as “incompatible”. For the same compound, the “Compatibility with Minocycline HCl” value in data set [1] was “No”. The “Compatibility with Doxycycline Hyclate” value in data set [2] (setting [7]) was “No”. Also, in data set [3] (setting [7]), the “Compatibility with Doxycycline Monohydrate” value was “No”.

Consider `C[S+](C)[O-]` [Dimethyl Sulfoxide], for which the “Compatibility with MCH” value in data set [1] (setting [6]) was “incompatible”.

With `OCC(O)CO` [Glycerin], the “Compatibility with MCH” value in data set [1] (setting [6]) is given as “incompatible”. In addition, in data set [1], the “Compatibility with Minocycline HCl (observations)” value was “intensive oxidation” and the “Compatibility with Minocycline HCl” value was “No”. Also, the “Compatibility with Doxycycline Hyclate” value in data set [2] (setting [7]) is given as “No”. In addition, in data set [3] (setting [7]), the “Compatibility with Doxycycline Monohydrate” value was “No”.

`CCCCCCCCCCCCCCCCCC(=O)OCC(O)CO` (centres unmarked) [Glyceryl monostearate]: the “Compatibility with MCH” value in data set [1] (setting [8]) was “incompatible”.

On to `CC(O)CC(C)(C)O` (centres unmarked) [Hexylene Glycol], for which, in data set [1] (setting [6]), the “Compatibility with MCH” value is “incompatible”. Besides, in data set [1], the “Compatibility with Minocycline HCl” value was “No”. The “Compatibility with Doxycycline Monohydrate” value in data set [3] (setting [9]) is on record as “oxidized”; in data set [3] (setting [7]), “No”.

With `CCCCCCCCCCCCCC(=O)OC(C)C` [Isopropyl myristate], in data set [1] (setting [10]), the “Compatibility with MCH” value is recorded as “compatible”.

Regarding `CC(C)CCCCCCCCCCCCCCC(=O)O` [Isostearic acid], the “Compatibility with MCH” value in data set [1] (setting [5]) is given as “not compatible”. For the same compound, the “Compatibility with Minocycline HCl” value in data set [1] is given as “No”. Further, in data set [2] (setting [7]), the “Compatibility with Doxycycline Hyclate” value is “Yes”.

As to `CC(C)CCCCCCCCCCCCCCCO` [Isostearyl alcohol], the “Compatibility with MCH” value in data set [1] (setting [5]) is reported as “compatible”.

Take `CC1CCC(C(C)C)C(O)C1` (centres unmarked) [Menthol]: the “Compatibility with MCH” value in data set [1] (additives, MCH:excipient 1:50) is recorded as “compatible”.

Take `CCCCCCCCCCCCCCO` [Myristyl alcohol]: the “Compatibility with MCH” value in data set [1] (setting [5]) is on record as “compatible”. In data set [1], the “Compatibility with Minocycline HCl” value was “Yes”. The “Compatibility with Doxycycline Hyclate” value in data set [2] (setting [7]) was “Yes”.

Consider `CCCCCCCCCCC(CO)CCCCCCCC` (centres unmarked) [Octyl dodecanol], for which the “Compatibility with MCH” value in data set [1] (setting [10]) is given as “compatible”. Also, in data set [1], the “Compatibility with Minocycline HCl (observations)” value is reported as “full compatibility”. Further, the “Compatibility with Minocycline HCl” value in data set [1] is reported as “Yes”. The “Compatibility with Doxycycline Hyclate” value was “incompatibility” in data set [2] (setting [9]) and “No” in data set [2] (setting [7]). Moreover, the “Compatibility with Doxycycline Monohydrate” value is given as “incompatibility” in data set [3] (setting [9]) and “No” in data set [3] (setting [7]).

Consider `CCCCCCCC/C=C\CCCCCCCC(=O)O` [Oleic acid], for which the “Compatibility with MCH” value in data set [1] (setting [5]) was “compatible”.

As for `CCCCCCCC/C=C\CCCCCCCCO` [Oleyl alcohol], the “Compatibility with MCH” value in data set [1] (setting [5]) is “compatible”. Besides, in data set [1], the “Compatibility with Minocycline HCl” value is “Yes”. In data set [2] (setting [7]), the “Compatibility with Doxycycline Hyclate” value is listed as “Yes”.

As for `CCCCCCCCCCCCCCCC(=O)O` [Palmitic acid], the “Compatibility with MCH” value in data set [1] (setting [5]) was “compatible”.

As for `CC(O)CO` (centres unmarked) [Propylene glycol], the “Compatibility with MCH” value in data set [1] (setting [6]) is “incompatible”. For the same compound, the “Compatibility with Minocycline HCl” value in data set [1] was “No”. The “Compatibility with Doxycycline Hyclate” value in data set [2] (setting [7]) is “No”. In addition, the “Compatibility with Doxycycline Monohydrate” value in data set [3] (setting [7]) is “No”.

Take `CN(C)c1ccc(O)c2c1C[C@H]1C[C@H]3[C@H](N(C)C)C(O)=C(C(N)=O)C(=O)[C@@]3(O)C(O)=C1C2=O` [Solodyn]: the “kel, Mean” value in data set [4] was found to be 0.044 h⁻¹. Also, the “kel, Median” value in data set [4] is 0.04 h⁻¹. Moreover, the AUC(0-inf) was determined as 15100 ng·h/mL in data set [4] (read-out: AUC0-inf, Geometric Mean); 15500 ng·h/mL in data set [4] (read-out: AUC0-inf, Mean); 15600 ng·h/mL in data set [4] (read-out: AUC0-inf, Median). The AUC in data set [4] (read-out: AUC0-tldc, Geometric Mean) came out at 14800 ng·h/mL; in data set [4] (read-out: AUC0-tldc, Mean), 15200 ng·h/mL; in data set [4] (read-out: AUC0-tldc, Median), 15400 ng·h/mL. In addition, the Cmax in data set [4] (read-out: Cmax, Geometric Mean) is 850 ng/mL; in data set [4] (read-out: Cmax, Mean) it was 873 ng/mL; in data set [4] (read-out: Cmax, Median) it was 801 ng/mL. For the same compound, the half-life is 15.8 h in data set [4] (read-out: T1/2, Harmonic Mean (converted)); 16 h in data set [4] (read-out: T1/2, Mean (converted)); 15.9 h in data set [4] (read-out: T1/2, Median (converted)). The Tmax in data set [4] (read-out: Tmax, Mean) came out at 2.7 h; in data set [4] (read-out: Tmax, Median), 3 h.

Consider `CCCCCCCCCCCCCCCCCC(=O)O` [Stearic acid], for which the “Compatibility with MCH” value in data set [1] (setting [5]) is “compatible”.

Consider `CCCCCCCCCCCCCCCCCCO` [Stearyl alcohol], for which the “Compatibility with MCH” value in data set [1] (setting [5]) is on record as “compatible”. In data set [1], the “Compatibility with Minocycline HCl” value is “Yes”. Besides, the “Compatibility with Doxycycline Hyclate” value in data set [2] (setting [7]) was “Yes”.

Turning to `CC(C)OC(=O)CCCCC(=O)OC(C)C` [diisopropyl adipate], the “Compatibility with MCH” value in data set [1] (setting [10]) is on record as “compatible”. Also, the “Compatibility with Minocycline HCl” value in data set [1] was “Yes”. Besides, the “Compatibility with Doxycycline Hyclate” value in data set [2] (setting [7]) is on record as “Yes”. Besides, the “Compatibility with Doxycycline Monohydrate” value in data set [3] (setting [7]) is on record as “No”.

For the compound `CCCOC(=O)c1cc(O)c(O)c(O)c1` [propyl gallate], the “Effect of antioxidant on MCH degradation” value in data set [1] is listed as “did not prevent MCH degradation”.

Turning to BHA/BHT, the “Effect of antioxidant on MCH degradation” value in data set [1] is listed as “did not prevent MCH degradation”.

Take Cyclomethicone: in data set [1] (setting [10]), the “Compatibility with MCH” value is reported as “compatible”.

Take SPAN 40: the “Compatibility with MCH” value in data set [1] (setting [8]) was “incompatible”.

Turning to SPAN 60, the “Compatibility with MCH” value in data set [1] (setting [8]) is “incompatible”.

Consider SPAN 80, for which the “Compatibility with MCH” value in data set [1] (setting [8]) is “incompatible”.

For the compound Sorbitan Monolaurate, in data set [1], the “Compatibility with Minocycline HCl” value is reported as “No”. Also, the “Compatibility with Doxycycline Hyclate” value in data set [2] (setting [7]) was “No”. Further, in data set [3] (setting [7]), the “Compatibility with Doxycycline Monohydrate” value was “No”.

As to Sorbitan Monostearate, in data set [1], the “Compatibility with Minocycline HCl” value is “Yes”. The “Compatibility with Doxycycline Hyclate” value in data set [2] (setting [7]) is reported as “Yes”.

On to Sorbitan sesquistearate, for which the “Compatibility with MCH” value in data set [1] (setting [8]) is recorded as “incompatible”.

The values above are taken from US10849847B2, “Compositions and methods for treating rosacea and acne” (Foamix Pharmaceuticals Ltd., priority 2016, dated 2020).
